System: subjects with tinnitus caused by acute hearing loss, stress and other reasons
Test: Two double-blind, randomized, placebo-controlled 17-week studies of neramexane mesylate in tinnitus; change in TBF-12 total score
Type: in vivo, human
Details: FAS-LOCF; for Change in the TBF-12 total score from baseline to Week 17/EOT, mean (SD): neramexane mesylate 50 or 75 mg/d, 17 weeks; for LSmean [ner − plac], estimated difference Neramexane − Placebo in change of TBF-12 total score, adjusted for covariates from ANCOVA: Week 17/EOT, negative = superior to placebo
Description: The objective was to assess the efficacy of neramexane as a treatment for tinnitus. The primary objectives of these two independent 17 weeks double-blind, randomized placebo-controlled studies were to compare the efficacy, tolerability and safety of neramexane mesylate at two different, weight-adapted dosages (50 or 75 mg/d) with placebo in subjects with tinnitus caused acute hearing loss, stress and other reasons.
In two independent, double-blind, multicenter, randomized, placebo-controlled, parallel-group studies, the efficacy of neramexane in subjects suffering from tinnitus caused by acute hearing loss, stress and other reasons were assessed.
In both studies, subjects were treated for 17 weeks with neramexane or placebo including a four-resp. five-week up-titration period, depending on study drug dose.
Patients with a target daily dose of 50 mg neramexane mesylate (<90 kg body weight) were to reach steady state after four weeks, patients with a target total daily dose of 75 mg neramexane mesylate 90 kg body weight) were to reach steady state after five weeks of treatment. For patients who experienced dose limiting adverse events with the 75 mg dose, the dosage was reduced by switching the patient to 50 mg/day. Patients unable to tolerate a minimum dosage of 50 mg/day discontinued.
Patients' eligibility for the studies was evaluated via a check of inclusion/exclusion criteria. The subject completed a Tinnitus-Beeinträchtigungs-Fragebogen (TBF-12=Tinnitus Handicap Inventory (THI-12)) (i.e., a 12-item modified and validated version (Greimel K V et al., Tinnitus-Beeinträchtigungs-Fragebogen (TBF-12). Manual. Frankfurt am Main: Swets & Zeitlinger B.V.; 2000) of the 25-item Tinnitus Handicap Inventory or THI (Newman C W, et al. Development of the Tinnitus Handicap Inventory. Arch Otolaryngol Head Neck Surg 1996; 122(2): 143-148; Newman C W, et al. Psychometric adequacy of the Tinnitus Handicap Inventory (THI) for evaluating treatment outcome. J Am Acad Audiol 1998; 9(2): 153-160.)). The TBF-12 items can be grouped in 2 factorial scores: an emotional-cognitive and a functional-communicational factor. At Visit 1 patients also completed a Tinnitus Rating Scale (TRS, Likert scores on Tinnitus Loudness, Tinnitus Impact on Life, and Tinnitus Annoyance), and the Hospital Anxiety and Depression Scale Audiology/psychoacoustic measurements were performed unless results from previous examinations performed no more than one year prior to Screening were available.
Neramexane mesylate immediate release tablets (12.5 mg and 25 mg, the manufacture thereof being disclosed in WO 2009/033649, whose respective content is incorporated herein by reference) and matching placebo tablets are administered as film coated tablets.
Primary Outcome • The change in TBF-12 total score from baseline (Visit 2) to the endpoint visit (Visit 7, i.e. Week 17 or end of treatment) was the primary efficacy endpoint in these studies.
All efficacy analyses were performed on the full analysis set (FAS) using the last-observation-carried-forward (LOCF) approach. For sensitivity purposes an analysis of the per-protocol set and of observed cases was performed additionally. All statistical tests used for testing the primary efficacy (confirmatory testing) and secondary efficacy criteria (exploratory), and all other statistical tests used for exploratory analyses were two-sided hypothesis tests performed at the 5% significance level. For all variables standard descriptive statistics were calculated.
Change from baseline (Visit 2) to Week 17 in TBF-12 total score was analyzed using an ANCOVA model with treatment group, gender and country as factors and baseline TBF-12 total score as covariate.

CC1(C)CC(C)(C)CC(C)(N)C1 [Neramexane, 1-amino-1,3,3,5,5-pentamethylcyclohexane]
Change in the TBF-12 total score from baseline to Week 17/EOT, mean (SD) (tinnitus caused by acute hearing loss, N=34): 34/−3.1 ± 5.0
LSmean [ner − plac], estimated difference Neramexane − Placebo in change of TBF-12 total score, adjusted for covariates from ANCOVA (tinnitus caused by acute hearing loss, P-value 0.0162): −3.9
Change in the TBF-12 total score from baseline to Week 17/EOT, mean (SD) (tinnitus caused by other reasons, N=323): 323/−2.4 ± 4.1
LSmean [ner − plac], estimated difference Neramexane − Placebo in change of TBF-12 total score, adjusted for covariates from ANCOVA (tinnitus caused by other reasons, P-value 0.5969): 0.2
Change in the TBF-12 total score from baseline to Week 17/EOT, mean (SD) (tinnitus caused by stress, N=41): 41/−3.4 ± 4.2
LSmean [ner − plac], estimated difference Neramexane − Placebo in change of TBF-12 total score, adjusted for covariates from ANCOVA (tinnitus caused by stress, P-value 0.0094): −2.3

Source: patent publication US20130296427A1, “NERAMEXANE FOR THE TREATMENT OR PREVENTION OF TINNITUS RELATED WITH STRESS OR ACUTE HEARING LOSS” (MERZ PHARMA GmbH & CO. KGaA, priority 2011, published 2013)
